Measured values taken from the supplement of paper PMC6470124.

Tests used:
[1] = absolute recovery over vacuum-assisted evaporative concentration; higher = better recovery; conditions: enrichment method: VEC
Method in brief: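 Samples of influent (6 mL), effluent (15 mL) and surface or nanopure water (60 mL) were spiked with standards before or after concentration, or left unspiked, at 200 ng/L (nanopure/surface) or 1000 ng/L (wastewater), adjusted by class and compound. Concentration was by evaporation at 55 °C and 20 mbar to about 0.3 mL, followed by adjustment to 0.4 mL and centrifugation. Internal standards were then added for LC-HRMS/MS analysis. Absolute recovery was (response ratio pre − unspiked)/(post − unspiked) × 100, using averages of ≥ 2 replicates.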

[2] = LC retention time (Atlantis T3, 5-95% MeOH gradient, 0.1% formic acid); higher = more retained / less polar
Method in brief: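 Retention times refer to reference standards measured by liquid chromatography with high-resolution tandem mass spectrometry. Separation was on an Atlantis T3 C18 column (3 × 150 mm, 3 μm) at 0.3 mL/min with a 5 to 95% methanol gradient over 17.5 min, both solvents carrying 0.1% formic acid. Positive and negative electrospray were run separately on a QExactive Plus, and TraceFinder peak integration (5 ppm tolerance, at least three points per peak) was reviewed by hand.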

[3] = absolute recovery over mixed-bed multilayer solid-phase extraction; higher = better recovery; conditions: enrichment method: SPE
Method in brief: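 A three-layer mixed-bed cartridge was loaded with 100–250 mL of wastewater (adjusted to pH 6.5, glass-fibre filtered) or 1000 mL of unfiltered nanopure water, then eluted with basic and subsequently acidic ethyl acetate/methanol. Standards were introduced pre-extraction, post-extraction, or not at all, at 200 ng/L for water and 1000 ng/L for wastewater, except for certain classes. Once internal standards had been added, both ionisation modes were run by liquid chromatography with high-resolution tandem mass spectrometry. Absolute recovery was derived from background-corrected response ratios of pre- against post-spiked samples, averaged over at least two replicates.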

Structure (SMILES) | absolute recovery ([1]; wastewater effluent) | absolute recovery ([1]; wastewater influent) | LC retention time [2] | absolute recovery ([3]; nanopure water) | absolute recovery ([3]; surface water) | absolute recovery ([3]; wastewater effluent) | absolute recovery ([3]; wastewater influent)
CCNc1nc(O)nc(NCC)n1 [Simazin-2-hydroxy] | 105% | 107% | 10.1 min | 84.5% | 78.7% | 88.3% | 82.7%
CCNc1nc(Cl)nc(NCC)n1 [Simazin] | 98.3% | 106% | 17.2 min | 94.2% | 94.4% | 88.3% | 94.9%
CCNc1nc(NCC)nc(OC)n1 [Simeton] | 101% | 102% | 13 min | 77.1% | 86% | 85.7% | 88.7%
CC(C)[NH2+]CC(O)c1ccc(NS(C)(=O)=O)cc1 (stereo unspecified) [Sotalol] | 104% | 103% | 8.25 min | 96.1% | 93% | 92.5% | 92%
CCC(C)(C)C(=O)OC1=C(c2ccc(Cl)cc2Cl)C(=O)OC12CCCCC2 [Spirodiclofen] | 77.8% | 44.4% | 23.8 min | – | 12.2% | 18% | –
CC(=O)SC1CC2=CC(=O)CCC2(C)C2CCC3(C)C(CCC34CCC(=O)O4)C12 (stereo unspecified) [Spironolacton] | 93.7% | 91.9% | 19.3 min | 80.9% | 79.1% | 87.9% | 92%
CCOC(=O)OC1=C(c2cc(C)ccc2C)C(=O)NC12CCC(OC)CC2 (stereo unspecified) [Spirotetramat] | 61.7% | 54.9% | 20 min | 12% | 16.9% | 29.9% | 27%
CCC[NH+](CC)CC1COC2(CCC(C(C)(C)C)CC2)O1 (stereo unspecified) [Spiroxamin] | 91.4% | 66.6% | 16.9 min | 83% | 102% | 90.3% | 71.8%
OCC1OC(OC2(CCl)OC(CCl)C(O)C2O)C(O)C(O)C1Cl (stereo unspecified) [Sucralose] | – | 108% | 13.4 min | 95% | – | – | –
CS(=O)(=O)c1ccc(C(=O)[O-])c(Cl)c1 [Sulcotrion-CMBA] | 101% | 109% | 12.1 min | 96.8% | 38% | 92.6% | 95.3%
CS(=O)(=O)c1ccc(C(=O)[C-]2C(=O)CCCC2=O)c(Cl)c1 [Sulcotrion] | 103% | 101% | 16.7 min | 97.7% | 93.4% | 94.8% | 93.9%
COc1cc([N-]S(=O)(=O)c2ccc(N)cc2)nc(OC)n1 [Sulfadimethoxin] | 104% | 98.4% | 14.9 min | 95.1% | 92% | 90.3% | 90%
Cc1cc(C)nc([N-]S(=O)(=O)c2ccc(N)cc2)n1 [Sulfamethazin] | 103% | 96.1% | 12.1 min | 95.2% | 91.3% | 86.2% | 89.8%
Cc1cc(N(C2OC(C(=O)[O-])C(O)C(O)C2O)S(=O)(=O)c2ccc(N)cc2)no1 (stereo unspecified) [Sulfamethoxazole-N1-Glucuronide] | 96.4% | 70.3% | 11.8 min | 86.9% | 21.3% | 49.2% | 66.1%
Nc1ccc(S(=O)(=O)[O-])cc1 [Sulfanilic-acid] | 124% | 96.5% | 3.46 min | 10.3% | 3.8% | 4.2% | 6.4%
Nc1ccc(S(=O)(=O)[N-]c2ccccn2)cc1 [Sulfapyridin] | 103% | 95.5% | 10.7 min | 98.5% | 93.6% | 88.1% | 96.2%
Nc1ccc(S(=O)(=O)[N-]c2nccs2)cc1 [Sulfathiazol] | 99.3% | 90.4% | 10.4 min | 92.4% | 91.4% | 83.6% | 93.6%
Cc1nn(-c2cc(NS(C)(=O)=O)c(Cl)cc2Cl)c(=O)n1C(F)F [Sulfentrazon] | 104% | 107% | 17.3 min | 97.5% | 100% | 92.9% | 88.9%
CCS(=O)(=O)c1nc2ccccn2c1S(=O)(=O)[N-]C(=O)Nc1nc(OC)cc(OC)n1 [Sulfosulfuron] | 108% | 98.9% | 19.4 min | 101% | 94.4% | 94.6% | 102%
CC[NH+]1CCCC1CNC(=O)c1cc(S(N)(=O)=O)ccc1OC (stereo unspecified) [Sulpirid] | 101% | 101% | 8.45 min | 80.1% | 80.6% | 77.1% | 93.3%
CC(C)CC(C)(O)C#CC(C)(O)CC(C)C (stereo unspecified) [Surfynol-104A] | 75.3% | 70.8% | 20.9 min | 86.2% | – | 73.8% | 143%
CC(C)(C)C(O)(CCc1ccc(Cl)cc1)Cn1cncn1 (stereo unspecified) [Tebuconazol] | 106% | 99.8% | 20.9 min | 98.5% | 94.7% | 96% | 94.3%
CCc1ccc(C(=O)NN(C(=O)c2cc(C)cc(C)c2)C(C)(C)C)cc1 [Tebufenozid] | 102% | 98.1% | 20.5 min | 104% | 111% | 98.7% | 103%
CC(C)N(Cc1ccccc1)C(=O)C(C)(C)C [Tebutam] | 52.3% | 46.1% | 20.5 min | 85.7% | 88.7% | 81.3% | 89.5%
